Values quoted from earlier work, collected in patent US20120093932A1, “TARGETED SUSTAINED-RELEASE MICROSPHERE OF VASCULAR OCCLUSIVE AGENT CONTAINING SODIUM ALGINATE AND SORAFENIB, PRODUCTION METHOD AND USE THEREOF” (Beijing Shengyiyao Science & Technology Development Co., …, priority 2009, published 2012).
Blank lines part the entries; values can stand above or below the compound they belong to.

Legend:
[1] = not given; remark: listed apart in the source
[2] = oral single dose, solution containing 100 mg sorafenib
[3] = oral administration
[4] = 400 mg orally twice a day; Phase I

SMILES: [O-][n+]1ccccc1 [pyridine N-Oxide]
role in vitro compared to sorafenib: plays a similar role to sorafenib

solubility in alcohol ([1]; alcohol): slightly soluble | solubility in aqueous solution ([1]; aqueous solution, becomes higher a little bit under strongly acid condition): low | solubility in polyethylene glycerol 400 ([1]; polyethylene glycerol 400): can be dissolved
SMILES: CNC(=O)c1cc(Oc2ccc(NC(=O)Nc3ccc(Cl)c(C(F)(F)F)c3)cc2)ccn1.Cc1ccc(S(=O)(=O)O)cc1 [sorafenib tosylate]

excreted as glucuronic acid metabolic products in urine [2]: 19% | excreted unchanged (faeces) ([2]; within 14 days): 15% | sorafenib excreted in the faeces ([2]; within 14 days): 77%
SMILES: CNC(=O)c1cc(Oc2ccc(NC(=O)Nc3ccc(Cl)c(C(F)(F)F)c3)cc2)ccn1 [sorafenib, 4-{4-[3-(4-chloro-3-trifluoro-phenyl)-ureido]-phenoxyl}-pyridine-2-carboxylic methylamine]
side effects: diarrhea [3]: 58% | side effects: gastrointestinal response [3]: 95% | side effects: indigestion accompanied by appetite loss [3]: 47% | side effects: nausea [3]: 30% | side effects: vomiting [3]: 24% | tolerability and effectiveness [4]: tolerated and effective
